System: KB
Test: Cytotoxicity against human KB cells
Assay type: functional, cell-based

| Structure (SMILES) | IC50 [µg/mL] |
| --- | --- |
| CCC(O)C(=O)C[C@@H](C)CCC/C(C)=C\C=C\[C@]1(C)CCCc2ccoc21 (stereo not given in full) | < 1 |
| C/C(=C/C=C/[C@]1(C)CCCc2ccoc21)CCC[C@H](C)CC(=O)[C@@H](O)[C@H](C)Cl | < 1 |
| CC1=C(O)/C(=C/[C@@H](C)CCC/C(C)=C/C=C/[C@]2(C)CCCc3ccoc32)OC1=O | ≥ 1 |
| CC1=C(O)/C(=C/[C@@H](C)CCC/C(C)=C\C=C\[C@]2(C)CCCc3ccoc32)OC1=O | ≥ 1 |
| C/C(=C/C=C/[C@]1(C)CCCc2ccoc21)CCC[C@H](C)CC(=O)[C@H](O)[C@H](C)Cl | < 1 |

Source: ChEMBL document CHEMBL1148150, “New cytotoxic furanosesterterpenes from an Okinawan marine sponge, Ircinia sp” (J Nat Prod, 2003)
